Where a name gives a salt, the structure may show the parent alone.
What was measured:
[1] = MTD assay, single administration to mice; assay type: in vivo; conditions: ICR male mice, tail intravenous administration, 14 days
Description: MTD Assay for a Single […] to Mice
1. Experimental Animals: ICR male mice, weighing 19-22 g, were purchased from Beijing Vital River Laboratory Animal Technology Co., Ltd., Animal License No. SCXK (Beijing) 2007-0001
2. Experimental Scheme: 21 mice were divided into nine groups: groups I, IV and VI referred to one mouse per group, groups II, V and IIX referred to four mice per group, and group III, VI and IX referred to two mice per group. Compound 4, compound 2 and compound 12 were dissolved in water for injection. Groups I-III were subjected to tail intravenous administration of compound 4 (N-[4-(3-chloro-4-fluorophenylamino)-7-(2-methoxyethoxy)quinazolin-6yl]-2-[piperidin-4-ylidene]acetamide dihydrochloride) at doses of 100 mg/kg, 150 mg/kg, and 200 mg/kg, respectively. The animal response and the weight change were observed after administration, and these animals were sacrificed after 14 days for anatomical observation. Groups IV-VI were subjected to tail intravenous administration of compound 2 (N-[4-(3-chloro-4-fluorophenylamino)-7-(2-methoxyethoxy)quinazolin-6yl]-2-[1-(2-methoxyethyl)piperidin-4-ylidene]acetamide dihydrochloride) at doses of 100 mg/kg, 150 mg/kg, and 200 mg/kg, respectively. The animal response and the weight change were observed after administration, and these animals were sacrificed after 14 days for anatomical observation. Groups VII-IX were subjected to tail intravenous administration of compound 12 (N-[4-(3-ethynylphenylamino-7-(2-ethoxy)quinazolin-6yl]-2-[1-methylpiperidin-4-ylidene]acetamide dihydrochloride) at doses of 100 mg/kg, 150 mg/kg, and 200 mg/kg, respectively. The animal response and the weight change were observed after administration, and these animals were sacrificed after 14 days for anatomical observation.

[2] = Preliminary pharmacokinetic studies; assay type: in vivo
[3] = FDA application records; cited from earlier work
[4] = Li D et al., Oncogene 2008; cited from earlier work

Row | Compound | Mortality ([1]; 100 mg/kg, 1 animal) [%] | Number of Deaths ([1]; 100 mg/kg, 1 animal) | Mortality ([1]; 150 mg/kg, 4 animals) [%] | Number of Deaths ([1]; 150 mg/kg, 4 animals) | Mortality ([1]; 200 mg/kg, 2 animals) [%] | Number of Deaths ([1]; 200 mg/kg, 2 animals) | distribution (gathering in the gastrointestinal tract) [2] | oral bioavailability [2] | bioavailability [3] [%] | MTD [4] [mg/kg]
1 | C#Cc1cccc(Nc2ncnc3cc(OCC)c(NC(=O)C=C4CCN(C)CC4)cc23)c1 [Compound 12, N-[4-(3-ethynylphenylamino-7-(2-ethoxy)quinazolin-6-yl]-2-[1-methylpiperidin-4-ylidene]acetamidedihydrochloride] | 0 | 0 | 50 | 2 | 100 | 2 | gathered in the gastrointestinal tract | very low |  | 
2 | COCCOc1cc2ncnc(Nc3ccc(F)c(Cl)c3)c2cc1NC(=O)C=C1CCNCC1 [Compound 4, N-[4-(3-chloro-4-fluorophenylamino)-7-(2-methoxyethoxy)quinazolin-6yl]-2-[piperidin-4-ylidene]acetamide dihydrochloride] | 0 | 0 | 0 | 0 | 50 | 1 | gathered in the gastrointestinal tract | very low |  | 
3 | CN(C)C/C=C/C(=O)Nc1cc2c(Nc3ccc(F)c(Cl)c3)ncnc2cc1O[C@H]1CCOC1 [Afatinib] |  |  |  |  |  |  |  |  | 11.175 | 30
